Common to all, as to type: cell-based
One assay has as its target T1, human TLR7 (Homo sapiens, UniProt Q9NYK1).
T1 construct: host or cells: HEK-Blue cells
T1 sequence (Q9NYK1 27-1049): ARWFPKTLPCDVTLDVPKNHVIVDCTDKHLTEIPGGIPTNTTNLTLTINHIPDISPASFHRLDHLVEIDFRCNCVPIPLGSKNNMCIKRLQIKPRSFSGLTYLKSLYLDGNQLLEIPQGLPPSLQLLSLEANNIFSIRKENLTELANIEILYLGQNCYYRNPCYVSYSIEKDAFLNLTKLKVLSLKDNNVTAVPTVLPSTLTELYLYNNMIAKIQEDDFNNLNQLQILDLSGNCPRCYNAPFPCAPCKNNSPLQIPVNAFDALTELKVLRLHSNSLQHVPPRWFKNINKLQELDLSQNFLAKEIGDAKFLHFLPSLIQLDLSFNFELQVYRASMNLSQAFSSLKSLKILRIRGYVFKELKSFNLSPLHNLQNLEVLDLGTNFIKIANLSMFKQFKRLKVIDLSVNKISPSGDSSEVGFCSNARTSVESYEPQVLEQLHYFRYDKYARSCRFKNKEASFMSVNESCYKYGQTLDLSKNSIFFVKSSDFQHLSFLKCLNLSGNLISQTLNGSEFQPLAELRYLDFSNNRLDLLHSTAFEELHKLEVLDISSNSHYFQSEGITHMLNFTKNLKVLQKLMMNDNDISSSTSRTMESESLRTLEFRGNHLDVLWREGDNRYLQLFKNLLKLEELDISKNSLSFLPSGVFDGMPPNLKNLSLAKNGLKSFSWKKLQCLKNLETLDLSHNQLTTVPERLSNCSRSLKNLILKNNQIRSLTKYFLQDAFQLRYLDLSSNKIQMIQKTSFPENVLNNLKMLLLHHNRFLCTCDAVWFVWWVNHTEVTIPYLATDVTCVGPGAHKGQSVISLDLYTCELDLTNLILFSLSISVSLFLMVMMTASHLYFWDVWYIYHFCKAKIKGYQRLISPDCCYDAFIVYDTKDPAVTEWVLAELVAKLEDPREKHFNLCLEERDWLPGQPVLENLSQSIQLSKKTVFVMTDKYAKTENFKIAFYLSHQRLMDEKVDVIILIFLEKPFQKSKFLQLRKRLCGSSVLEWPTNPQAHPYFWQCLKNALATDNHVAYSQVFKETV
Nature of the assay: TLR7 inhibition reporter assay (HEK-Blue cells, SEAP reporter, gardiquimod stimulation). As to conditions: HEK-Blue cells overexpressing human TLR7, SEAP reporter, gardiquimod 7.5 μM; read-out: TLR7 IC50. The procedure, abridged: (§1)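 Dose–response from 0.05 nM to 50 μM was run in HEK-Blue human TLR7, TLR8 and TLR9 reporter cells. After 30 min at room temperature with compound, ligand was added (TLR7 gardiquimod 7.5 μM; TLR8 R848 15.9 μM; TLR9 ODN2006 5 nM) and SEAP measured next day, at 22 h.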
(A reporter such as luciferase makes a cellular process visible.)

The target of another assay is T2, human TLR8 (Homo sapiens, UniProt Q9NR97).
T2 construct: host or cells: HEK-Blue cells
T2 sequence (Q9NR97 27-1041): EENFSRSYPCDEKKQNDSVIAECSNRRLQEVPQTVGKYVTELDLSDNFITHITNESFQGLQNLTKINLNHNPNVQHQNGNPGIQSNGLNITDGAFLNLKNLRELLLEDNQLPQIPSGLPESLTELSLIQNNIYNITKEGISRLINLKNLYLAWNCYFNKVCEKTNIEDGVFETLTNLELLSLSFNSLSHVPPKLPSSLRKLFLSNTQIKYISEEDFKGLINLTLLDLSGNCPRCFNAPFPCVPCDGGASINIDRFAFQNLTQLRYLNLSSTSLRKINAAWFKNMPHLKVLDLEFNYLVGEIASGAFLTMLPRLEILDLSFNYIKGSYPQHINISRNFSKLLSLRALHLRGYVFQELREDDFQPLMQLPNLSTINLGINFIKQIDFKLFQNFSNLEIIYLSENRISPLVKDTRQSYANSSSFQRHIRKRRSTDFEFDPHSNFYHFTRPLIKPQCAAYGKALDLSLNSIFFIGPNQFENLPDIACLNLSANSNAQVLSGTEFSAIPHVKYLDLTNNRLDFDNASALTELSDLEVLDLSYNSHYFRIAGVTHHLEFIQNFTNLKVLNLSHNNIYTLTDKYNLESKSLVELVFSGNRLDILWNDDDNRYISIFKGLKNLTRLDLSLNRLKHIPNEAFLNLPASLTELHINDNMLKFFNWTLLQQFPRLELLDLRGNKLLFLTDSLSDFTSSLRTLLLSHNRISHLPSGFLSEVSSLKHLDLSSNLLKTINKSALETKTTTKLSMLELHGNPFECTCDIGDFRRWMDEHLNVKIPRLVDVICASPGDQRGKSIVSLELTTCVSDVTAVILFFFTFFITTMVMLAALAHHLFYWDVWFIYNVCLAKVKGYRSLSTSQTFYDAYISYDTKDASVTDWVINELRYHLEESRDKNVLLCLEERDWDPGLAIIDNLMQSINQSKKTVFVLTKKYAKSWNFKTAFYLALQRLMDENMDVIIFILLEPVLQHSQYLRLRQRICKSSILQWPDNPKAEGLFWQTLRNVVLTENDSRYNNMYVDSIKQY
The experiment in a line: TLR8 inhibition reporter assay (HEK-Blue cells, SEAP reporter, R848 stimulation). Particulars: HEK-Blue cells overexpressing human TLR8, SEAP reporter, R848 15.9 μM; read-out: TLR8 IC50. The procedure, abridged:
as §1

For a further assay, the target named is T3, human TLR9 (Homo sapiens, UniProt Q9NR96).
T3 construct: host or cells: HEK-Blue cells
T3 sequence (Q9NR96 26-1032): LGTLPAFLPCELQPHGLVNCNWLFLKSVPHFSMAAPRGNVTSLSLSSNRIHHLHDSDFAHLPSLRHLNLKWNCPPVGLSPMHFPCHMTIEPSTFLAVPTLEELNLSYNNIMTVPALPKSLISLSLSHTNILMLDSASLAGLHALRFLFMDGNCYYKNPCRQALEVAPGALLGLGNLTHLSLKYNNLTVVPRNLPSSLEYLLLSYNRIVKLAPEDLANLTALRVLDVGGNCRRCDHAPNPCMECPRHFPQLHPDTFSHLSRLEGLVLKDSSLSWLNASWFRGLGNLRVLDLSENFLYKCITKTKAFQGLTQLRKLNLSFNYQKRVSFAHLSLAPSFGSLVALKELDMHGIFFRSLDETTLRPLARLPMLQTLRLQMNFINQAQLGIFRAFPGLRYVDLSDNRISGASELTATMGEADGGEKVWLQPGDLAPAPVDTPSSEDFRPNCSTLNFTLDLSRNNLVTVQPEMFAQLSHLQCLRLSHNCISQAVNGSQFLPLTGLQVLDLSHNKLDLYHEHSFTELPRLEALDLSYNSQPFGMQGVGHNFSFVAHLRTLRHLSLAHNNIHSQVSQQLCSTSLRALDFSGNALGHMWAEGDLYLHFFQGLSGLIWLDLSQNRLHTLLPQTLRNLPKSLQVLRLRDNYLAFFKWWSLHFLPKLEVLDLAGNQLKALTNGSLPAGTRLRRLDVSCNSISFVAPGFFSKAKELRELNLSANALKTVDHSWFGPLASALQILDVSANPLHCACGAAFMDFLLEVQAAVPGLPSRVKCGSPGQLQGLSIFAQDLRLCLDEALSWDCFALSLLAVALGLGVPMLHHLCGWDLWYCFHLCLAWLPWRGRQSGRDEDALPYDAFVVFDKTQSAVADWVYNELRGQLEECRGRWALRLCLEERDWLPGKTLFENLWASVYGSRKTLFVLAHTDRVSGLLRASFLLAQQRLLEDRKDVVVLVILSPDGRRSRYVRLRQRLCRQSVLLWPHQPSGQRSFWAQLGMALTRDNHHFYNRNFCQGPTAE
The experiment in a line: TLR9 inhibition reporter assay (HEK-Blue cells, SEAP reporter, ODN2006 stimulation). Particulars: HEK-Blue cells overexpressing human TLR9, SEAP reporter, ODN2006 5 nM. The procedure, abridged:
as §1

The record followed here is patent US20230139171A1 (SITA Information Networking Computing UK Limited, priority 2019, published 2023).

By IC50 is commonly meant the concentration at which inhibition is half-maximal.

Turning to `CCN(C)C1CCC(c2nc3c(C(C)C)c(-c4cn(C)c5ncccc45)[nH]c3s2)CC1` (single isomer, unassigned) [Example 174, N-ethyl-4-(6-isopropyl-5-(1-methyl-1H-pyrrolo[2,3-b]pyridin-3-yl)-4H-pyrrolo[3,2-d]thiazol-2-yl)-N-methylcyclohexan-1-amine], the IC50 on human TLR7 is 1.84 nM; on human TLR8, 3.13 nM; against human TLR9 it was 16000 nM.

With `CCN(C)C1CCC(c2nc3c(C(C)C)c(-c4cn(C)c5ncccc45)[nH]c3s2)CC1` (single isomer, unassigned) [Example 175, N-ethyl-4-(6-isopropyl-5-(1-methyl-1H-pyrrolo[2,3-b]pyridin-3-yl)-4H-pyrrolo[3,2-d]thiazol-2-yl)-N-methylcyclohexan-1-amine], the IC50 on human TLR7 was determined as 3.76 nM; at human TLR8 it was 6.23 nM; on human TLR9, 6250 nM.

`CC(C)c1c(-c2cn(C)c3ncccc23)[nH]c2sc(C3CCC(NC45CC(C4)C5)CC3)nc12` (single isomer, unassigned) [Example 176, N-(4-(6-isopropyl-5-(1-methyl-1H-pyrrolo[2,3-b]pyridin-3-yl)-4H-pyrrolo[3,2-d]thiazol-2-yl)cyclohexyl)bicyclo[1.1.1]pentan-1-amine]: the IC50 on human TLR7 was 23.3 nM; at human TLR8, 23.7 nM; at human TLR9 it was 9580 nM.

`CC(C)c1c(-c2cn(C)c3ncccc23)[nH]c2sc(C3CCC(NC45CC(C4)C5)CC3)nc12` (single isomer, unassigned) [Example 177, N-(4-(6-isopropyl-5-(1-methyl-1H-pyrrolo[2,3-b]pyridin-3-yl)-4H-pyrrolo[3,2-d]thiazol-2-yl)cyclohexyl)bicyclo[1.1.1]pentan-1-amine]: the IC50 at human TLR7 was 3.23 nM; on human TLR8 it was 5.63 nM; against human TLR9 it was 9790 nM.

As for `CC(C)c1c(-c2cn(C)c3ncccc23)[nH]c2sc(C3CCC(NC4COC4)CC3)nc12` (single isomer, unassigned) [Example 178, N-(4-(6-isopropyl-5-(1-methyl-1H-pyrrolo[2,3-b]pyridin-3-yl)-4H-pyrrolo[3,2-d]thiazol-2-yl)cyclohexyl)oxetan-3-amine], the values for the IC50 on human TLR7, at human TLR8 and against human TLR9 were 1.69 nM, 2.44 nM and 6710 nM, respectively.

As for `CC(C)c1c(-c2cn(C)c3ncccc23)[nH]c2sc(C3CCC(NC4COC4)CC3)nc12` (single isomer, unassigned) [Example 179, N-(4-(6-isopropyl-5-(1-methyl-1H-pyrrolo[2,3-b]pyridin-3-yl)-4H-pyrrolo[3,2-d]thiazol-2-yl)cyclohexyl)oxetan-3-amine], the IC50 turned out to be 9.72 nM on human TLR7, 13.5 nM on human TLR8 and 7260 nM on human TLR9.

`CC(C)c1c(-c2cn(C)c3ncccc23)[nH]c2sc(C3CCC(N4CC5(COC5)C4)CC3)nc12` (single isomer, unassigned) [Example 180, 6-(4-(6-isopropyl-5-(1-methyl-1H-pyrrolo[2,3-b]pyridin-3-yl)-4H-pyrrolo[3,2-d]thiazol-2-yl)cyclohexyl)-2-oxa-6-azaspiro[3.3]heptane]: the IC50 came to 3.54 nM at human TLR7, 3.7 nM on human TLR8 and 5280 nM at human TLR9.

With `CC(C)c1c(-c2cn(C)c3ncccc23)[nH]c2sc(C3CCC(N4CC5(COC5)C4)CC3)nc12` (single isomer, unassigned) [Example 181, 6-(4-(6-isopropyl-5-(1-methyl-1H-pyrrolo[2,3-b]pyridin-3-yl)-4H-pyrrolo[3,2-d]thiazol-2-yl)cyclohexyl)-2-oxa-6-azaspiro[3.3]heptane], the IC50 at human TLR7 was 9.92 nM; on human TLR8 it was 36 nM; against human TLR9, 5660 nM.

Consider `CC(C)c1c(-c2cn(C)c3ncccc23)[nH]c2sc(C3CCC(NCC(C)(C)O)CC3)nc12` (single isomer, unassigned) [Example 182, 1-((4-(6-isopropyl-5-(1-methyl-1H-pyrrolo[2,3-b]pyridin-3-yl)-4H-pyrrolo[3,2-d]thiazol-2-yl)cyclohexyl)amino)-2-methylpropan-2-ol], for which the IC50 on human TLR7 was found to be 1.74 nM; on human TLR8, 0.76 nM; against human TLR9 it was 13500 nM.

For `CC(C)c1c(-c2cn(C)c3ncccc23)[nH]c2sc(C3CCC(NCC(C)(C)O)CC3)nc12` (single isomer, unassigned) [Example 183, 1-((4-(6-isopropyl-5-(1-methyl-1H-pyrrolo[2,3-b]pyridin-3-yl)-4H-pyrrolo[3,2-d]thiazol-2-yl)cyclohexyl)amino)-2-methylpropan-2-ol], the IC50 on human TLR7 was found to be 8.89 nM; on human TLR8, 9.41 nM; at human TLR9, 6790 nM.
